Experimental data reported in the NIST ThermoML archive (doi:10.1016/j.jct.2008.05.005).

Test: xn = mol fraction of the nth substance listed
Details: Liquid, Vibrating tube method

CCCCn1cc[n+](C)c1.F[B-](F)(F)F [1-butyl-3-methylimidazolium tetrafluoroborate] + CO
mass density [kg/m3]
Details	373.15 K	398.15 K
870 kPa, x1 = 0.0087	–	702.45
980 kPa, x1 = 0.7501	–	1114.32
990 kPa, x1 = 0.4988	–	1069.4
1020 kPa, x1 = 0.2626	–	985.77
1030 kPa, x1 = 0.9102	–	1132.67
1250 kPa, x1 = 0.0433	–	772.27
2310 kPa, x1 = 0.1302	–	891.44
5010 kPa, x1 = 0.0087	–	709.59
5060 kPa, x1 = 0.0433	–	778.08
5060 kPa, x1 = 0.2626	–	989.1
5080 kPa, x1 = 0.4988	–	1072.6
5120 kPa, x1 = 0.1302	–	894.51
5310 kPa, x1 = 0.7501	–	1117.54
5410 kPa, x1 = 0.9102	–	1135.7
10030 kPa, x1 = 0.0087	–	717.77
10030 kPa, x1 = 0.1302	–	899.7
10120 kPa, x1 = 0.2626	–	994.1
10250 kPa, x1 = 0.9102	–	1138.98
10410 kPa, x1 = 0.0433	–	785.75
10410 kPa, x1 = 0.7501	–	1121.25
10470 kPa, x1 = 0.4988	–	1077.23
14950 kPa, x1 = 0.0087	–	725.27
15020 kPa, x1 = 0.1302	–	904.75
15070 kPa, x1 = 0.0433	–	791.97
15210 kPa, x1 = 0.4988	–	1081.15
15360 kPa, x1 = 0.9102	–	1142.35
15450 kPa, x1 = 0.2626	–	999.14
15960 kPa, x1 = 0.7501	–	1125.17
20030 kPa, x1 = 0.4988	–	1085
20060 kPa, x1 = 0.0087	–	732.52
20060 kPa, x1 = 0.2626	–	1003.34
20100 kPa, x1 = 0.1302	–	909.67
20310 kPa, x1 = 0.0433	–	798.45
20340 kPa, x1 = 0.7501	–	1128.18
20470 kPa, x1 = 0.9102	–	1145.63
24980 kPa, x1 = 0.0087	–	738.99
25010 kPa, x1 = 0.9102	–	1148.46
25060 kPa, x1 = 0.1302	–	914.25
25080 kPa, x1 = 0.0433	–	803.88
25320 kPa, x1 = 0.4988	–	1089.05
25620 kPa, x1 = 0.2626	–	1008.18
25720 kPa, x1 = 0.7501	–	1131.78
29970 kPa, x1 = 0.1302	–	918.57
30080 kPa, x1 = 0.7501	–	1134.62
30090 kPa, x1 = 0.4988	–	1092.57
30120 kPa, x1 = 0.0087	–	745.21
30200 kPa, x1 = 0.0433	–	809.19
30550 kPa, x1 = 0.0433	830.7	–
30740 kPa, x1 = 0.2626	–	1012.44
30780 kPa, x1 = 0.0087	768.4	–
30890 kPa, x1 = 0.9102	–	1152.03
34960 kPa, x1 = 0.0433	–	813.67
34970 kPa, x1 = 0.0433	834.46	–
35040 kPa, x1 = 0.4988	–	1096.06
35040 kPa, x1 = 0.9102	1169.67	–
35060 kPa, x1 = 0.1302	–	922.81
35210 kPa, x1 = 0.7501	1153.29	1137.87
35280 kPa, x1 = 0.9102	–	1154.61
35310 kPa, x1 = 0.0087	–	750.93
35560 kPa, x1 = 0.1302	941.4	–
35620 kPa, x1 = 0.2626	1033.9	1016.31
35640 kPa, x1 = 0.4988	1112.39	–
35780 kPa, x1 = 0.0087	773.25	–
39510 kPa, x1 = 0.0087	776.62	–
39740 kPa, x1 = 0.1302	–	926.51
39910 kPa, x1 = 0.0433	838.34	–
39920 kPa, x1 = 0.9102	–	1157.27
39940 kPa, x1 = 0.0433	–	817.88
39940 kPa, x1 = 0.2626	1036.83	–
39940 kPa, x1 = 0.7501	–	1140.77
39940 kPa, x1 = 0.9102	1172.26	–
39960 kPa, x1 = 0.4988	–	1099.38
39970 kPa, x1 = 0.0087	–	755.59
39970 kPa, x1 = 0.4988	1115.12	–
39980 kPa, x1 = 0.2626	–	1019.62
39980 kPa, x1 = 0.7501	1155.94	–
40050 kPa, x1 = 0.1302	944.67	–
